Test results reported in PMC11480295, “Hypecotumines A-D, new isoquinoline alkaloids with potential PCSK9 inhibition activity from Hypecoum erectum L” (Natural Products and Bioprospecting, 2024).

What follows are compounds tested against PCSK9 (Homo sapiens, UniProt Q8NBP7) (assay: SPR (Biacore T200, PCSK9 immobilized on CM5 chip)).
Type: binding

Chain of PCSK9 (Q8NBP7 31-152): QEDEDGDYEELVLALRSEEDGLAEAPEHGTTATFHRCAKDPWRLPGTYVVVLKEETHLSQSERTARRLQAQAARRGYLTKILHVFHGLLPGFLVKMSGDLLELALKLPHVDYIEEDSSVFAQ
Chain of PCSK9 (Q8NBP7 153-692): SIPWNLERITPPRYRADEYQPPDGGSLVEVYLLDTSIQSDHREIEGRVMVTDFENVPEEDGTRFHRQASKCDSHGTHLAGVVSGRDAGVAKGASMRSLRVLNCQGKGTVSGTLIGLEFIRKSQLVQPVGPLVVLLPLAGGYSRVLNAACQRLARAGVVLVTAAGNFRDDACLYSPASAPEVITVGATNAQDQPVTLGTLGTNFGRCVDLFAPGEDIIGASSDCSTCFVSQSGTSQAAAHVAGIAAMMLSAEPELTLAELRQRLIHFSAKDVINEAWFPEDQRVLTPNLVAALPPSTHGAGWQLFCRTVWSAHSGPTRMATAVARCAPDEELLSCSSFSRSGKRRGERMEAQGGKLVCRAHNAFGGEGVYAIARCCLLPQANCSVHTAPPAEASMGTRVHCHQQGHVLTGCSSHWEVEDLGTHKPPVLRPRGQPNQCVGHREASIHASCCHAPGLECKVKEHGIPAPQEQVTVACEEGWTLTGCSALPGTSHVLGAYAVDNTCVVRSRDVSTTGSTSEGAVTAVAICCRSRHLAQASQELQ

Question: C=C(C1=[N+](C)CCc2cc3c(cc21)OCO3)c1ccc(OC)c(O)c1C(=O)[O-] [compound 1, Hypecotumine A] was tested. Which Kd did it give?
Answer: 306 µM

Question: For C=C(C1=[N+](C)CCc2cc(OC)c(OC)cc21)c1ccc(OC)c(O)c1C(=O)[O-] [compound 2, Hypecotumine B], which Kd is on record?
Answer: 248 µM

Question: How did the Kd turn out when C=C(C1=[N+](C)CCc2cc(OC)c(OC)cc21)c1ccc2c(c1C(=O)[O-])OCO2 [compound 3, Hypecotumine C] was run?
Answer: 95.1 µM

Question: With C=C(C1=[N+](C)CCc2cc3c(cc21)OCO3)c1ccc2c(c1C(=O)[O-])OCO2 [compound 4, Hypecotumine D] as the compound, how does the Kd read?
Answer: 59.9 µM
